Assay results: patent US20170183306A1, “CYCLIC COMPOUNDS HAVING A 1,3 DIAMINO-FUNCTIONALITY FOR USE IN THE TREATMENT OF HIV INFECTION” (Universite Paris Descartes, priority 2014, published 2017)
Counter-ions that a name gives are not always drawn.

What was measured:
Format in all cases: cell-based
[1] = tested on: HeLa-p4 cells; assay: Cell viability assay (MTS) on HeLa-p4 cells; details: cell viability
Experimental: (§1) HeLa-p4 cells are HeLa CD4 LTR-LacZ wherein LacZ expression is induced by the trans-activating protein Tat of HIV, making possible the precise quantification of HIV-1 infectivity from a single replication cycle. HeLa-CD4 cells growing exponentially at a density of 1×10^4/mL were placed in 96-well plates and infected the following day with 1 ng of HIV p24 antigen in the presence of different concentrations of compounds. The titles for a single cycle of the viruses were determined 48 hours after infection by quantifying the beta-galactosidase activity in lysates P4 by colorimetric test (CPRG, Promega) based on the cleavage of chlorophenol red-beta-D-galactopyranoside (CPRG) by beta-galactosidase. A cell viability assay measuring the absorbance at […] using the yellow tetrazolium reagent MTS [[…]] (Promega) was carried out.
(§2) For the helap4 cells experiments, the efficacy of the compounds is determined in comparison with control cells containing wild type NL4-3 virus alone (i.e. without any added compound) and is expressed as percentage of control. Then, the viral replication was increased for several compounds at the 50 and 100 μM concentrations with an absence of cytotoxic effects at the same concentrations (MTS test) (table 1).

[2] = tested on: J-Lat cells; assay: J-Lat cells, percentage of GFP-positive cells by cytometry; details: 24 h, compound alone
Experimental: The J-Lat were grown in RPMI 1640 medium (Gibco-BRL) supplemented with 10% fetal bovine serum, 50 U/ml of penicillin, […] of streptomycin at 37 uC in a humidified 95% air/5% CO2 atmosphere. The cells were plated at 5.105 cells in a 96 well-plate. TNF ? was purchased from Immunosource. SAHA (suberoylanilide hydroxamic acid), prostratin (12-deoxyphorbol-13-acetate) and vorinostat were obtained from Sigma-Aldrich. The J-Lat cells were treated for 24 h with the different compounds alone. The cells were washed twice in PBS, re-suspended in PBS containing 4% paraformaldehyde and fixed for 30 min. Cells were next washed and re-suspended in PBS. The percentage of GFP-positive cells was measured with a LSRFortessa cytometer (Becton-Dickinson) using FACSDiva Version 6.1.3 according to the manufacturer's instructions.
The results for the J-Lat cells experiments are expressed as a percentage of the living fluorescent cells. In this model, some slight increase of viral production measured by fluorescence are quantified (table 1).

[3] = tested on: wild type NL4-3 virus (HIV-1) in HeLa-p4 cells; assay: HeLa-p4 single-cycle HIV-1 infectivity, beta-galactosidase CPRG test; details: Human immunodeficiency virus 1, NL43, HeLaP4, 48 hours after infection, control = NL4-3 virus alone; for activity at 50 µM: read-out: Hela-p4 CPRG 50 μM; for activity at 100 µM: read-out: Hela-p4 CPRG 100 μM
Experimental: as §1, §2

| SMILES | Hela-p4 MTS 50 μM [1] | Hela-p4 MTS 100 μM [1] | J-lat 50 μM [2] | J-lat 100 μM [2] | activity at 50 µM [3] [%] | activity at 100 µM [3] [%] | Hela-p4 MTS 200 μM [1] | activity at 200 µM [3] [%] |
| --- | --- | --- | --- | --- | --- | --- | --- | --- |
| N[C@H]1CC(OCc2cn(CC(=O)c3cc4ccc3CCc3ccc(cc3)CC4)nn2)[C@@H](N)C1 (stereo partly drawn) [RA 20] | 108 | 97 | 0.1 percentage of the living fluorescent cells | 1.1 percentage of the living fluorescent cells | 167 | 188 | – | – |
| COc1ccc(CN2C[C@H](N)C[C@H](N)C2)cc1OC [PDA25, 1-(3,4-dimethoxybenzyl)piperidine-3,5-diamine] | 97 | 93 | 0 percentage of the living fluorescent cells | 0.2 percentage of the living fluorescent cells | 183 | 184 | 58 | 227 |
| COc1cc(N2C[C@H](N)C[C@H](N)C2)cc(OC)c1OC [AB-116, (3S,5R)-1-(3,4,5-trimethoxyphenyl)piperidine-3,5-diamine] | 96 | 97 | 0 percentage of the living fluorescent cells | 0.5 percentage of the living fluorescent cells | 135 | 172 | 86 | 248 |
| N[C@@H]1C[C@H](N)CN(CCc2ccc(O)cc2)C1 [ECO02-028-C, 4-(2-(3,5-diaminopiperidin-1-yl)ethyl)phenol] | 100 | 83 | 0.3 percentage of the living fluorescent cells | 0.2 percentage of the living fluorescent cells | 107 | 89 | – | – |
| Cc1cccc(CCN2C[C@H](N)C[C@H](N)C2)c1 [ECO01-030-C, 1-(3-methylphenethyl)piperidine-3,5-diamine] | 84 | 82 | 0.1 percentage of the living fluorescent cells | 0 percentage of the living fluorescent cells | 125 | 103 | – | – |
| COC(=O)[C@H](Cc1ccccc1)N1C[C@H](N)C[C@H](N)C1 [AB-81, (S)-methyl 2-((3S,5R)-3,5-diaminopiperidin-1-yl)-3-phenylpropanoate] | 96 | 94 | 0.1 percentage of the living fluorescent cells | 0.8 percentage of the living fluorescent cells | 151 | 147 | – | – |
| N[C@@H]1C[C@H](N)CN(c2ccc(NC(=O)c3ccccc3)c(O)c2)C1 [AB-120, N-(4-((3S,5R)-3,5-diaminopiperidin-1-yl)-2-hydroxyphenyl)benzamide] | 94 | 90 | 0.1 percentage of the living fluorescent cells | 12.3 percentage of the living fluorescent cells | 144 | 230 | 55 | 215 |
| COc1cc(CN2C[C@H](N)C[C@H](N)C2)cc(OC)c1 [ECO02-064-C, 1-(3,5-dimethoxybenzyl)piperidine-3,5-diamine] | 115 | 107 | 2.4 percentage of the living fluorescent cells | – | 109 | 133 | – | – |
| N[C@@H]1C[C@H](N)CN(CCc2ccc3c(c2)OCO3)C1 [ECO01-033-C, 1-(2-(benzo[d][1,3]dioxol-5-yl)ethyl)piperidine-3,5-diamine] | 97 | 94 | 0.1 percentage of the living fluorescent cells | 0.2 percentage of the living fluorescent cells | 103 | 146 | – | – |
| CCOc1ccc(CCN2C[C@H](N)C[C@H](N)C2)cc1 [ECO02-005-C, 1-(4-ethoxyphenethyl)piperidine-3,5-diamine] | 106 | 97 | 0.5 percentage of the living fluorescent cells | 0.1 percentage of the living fluorescent cells | 127 | 195 | – | – |
| N[C@@H]1C[C@H](N)CN(C2Cc3ccccc3C2)C1 [ECO01-041-C, 1-(2,3-dihydro-1H-inden-2-yl)piperidine-3,5-diamine] | 98 | 84 | 1.0 percentage of the living fluorescent cells | 0.1 percentage of the living fluorescent cells | 114 | 131 | – | – |
| N[C@@H]1C[C@H](N)CN(c2ccc3c(c2)OCO3)C1 [ECO01-042-C] | 85 | 60 | 0.2 percentage of the living fluorescent cells | 0.4 percentage of the living fluorescent cells | 146 | 104 | – | – |
| CC(C)(C)OC(=O)N[C@@H]1C[C@H](NC(=O)OC(C)(C)C)CN(Cc2ccc(N3CCCC3)cc2)C1 [ECO02-059-C, di-tert-butyl (1-(4-(pyrrolidin-1-yl)benzyl)piperidine-3,5-diyl)dicarbamate] | 95 | 67 | 0.5 percentage of the living fluorescent cells | – | 198 | 177 | – | – |
| COc1ccc(CCN2C[C@H](N3C[C@H](N)C[C@H](N)C3)C[C@H](N3C[C@H](N)C[C@H](N)C3)C2)cc1OC [AB-103, (3S,3′R,3″S,5R,5′S,5″R)-1′-(3,4-dimethoxyphenethyl)-[1,3′:5′,1″-terpiperidine]-3,3″,5,5″-tetraamine] | 83 | 84 | 0.2 percentage of the living fluorescent cells | 0.4 percentage of the living fluorescent cells | 125 | 143 | – | – |
| CS(=O)(=O)c1ccc(CCN2C[C@H](N)C[C@H](N)C2)cc1 [ECO01-039-C, 1-(4-(methylsulfonyl)phenethyl)piperidine-3,5-diamine] | 95 | 108 | 0.1 percentage of the living fluorescent cells | 0.1 percentage of the living fluorescent cells | 164 | 168 | – | – |
| COc1ccc2[nH]cc(CCN3C[C@H](N)C[C@H](N)C3)c2c1 [AB-84, (3S,5R)-1-(2-(5-methoxy-1H-indol-3-yl)ethyl)piperidine-3,5-diamine] | 62 | 60 | 0.1 percentage of the living fluorescent cells | 6.9 percentage of the living fluorescent cells | 112 | 75 | – | – |
| CCc1ccc(C(=O)NC(CCCCN)C(=O)N2C[C@H](N)C[C@H](N)C2)cc1 (stereo partly drawn) [AB289-2, N-(6-amino-1-(3,5-diaminopiperidin-1-yl)-1-oxohexan-2-yl)-4-ethylbenzamide] | 113 | 101 | 0.1 percentage of the living fluorescent cells | 0.2 percentage of the living fluorescent cells | 154 | 219 | 72 | 248 |
| N[C@@H]1C[C@H](N)CN(c2ccc(NC(=O)c3ccccc3)cc2)C1 [ECO03-002-C, N-(4-(3,5-diaminopiperidin-1-yl)phenyl)benzamide] | 115 | 116 | 0.5 percentage of the living fluorescent cells | – | 120 | 165 | 74 | 317 |
| N[C@@H]1C[C@H](N)CN(Cc2cccc3cnccc23)C1 [ECO02-068-C, 1-(isoquinolin-5-ylmethyl)piperidine-3,5-diamine trihydrochloride] | 85 | 83 | 0.4 percentage of the living fluorescent cells | – | 105 | 137 | – | – |
